Test results: US9359298B2, “Cajanine structure analogous compound, preparation method and use” (INSTITUTE OF MEDICINAL BIOTECHNOLOGY, CHINESE ACADEMY OF …, priority 2011, dated 2016)
Converted amounts (≈) assume the structure as drawn. Like-named read-outs stand apart in the source and are kept apart here.

Tests used:
Type in all cases: cell-based
[1] = system: HCV; assay: Anti-hepatitis C virus (HCV) activity assay (HCV RNA in Huh7.5 cells); details: for EC50: Hepatitis C virus, Huh7.5, 72 h, read-out: HCV EC50; for anti-HCV viral activity: statement in words
Experimental: Inoculate Huh7.5 cells into 96-well plates to a density of 3×10^4 cells/cm^2, culture for 24h, infect the cells with 45 IU/cell HCV supernatant, meanwhile, add drug solutions or solvent control for treatment.

[2] = system: Coxsackie virus B6; assay: Coxsackie virus activity assay (CPE in Vero cells); details: for IC50: Vero, read-out: COX-B6 IC50, Vero cells, about 100TCID50, CPE, Reed-Muench
[3] = system: PC12 cells; assay: Neuroprotective activity assay, serum-deprived injury to PC12 cells (MTT); details: for viability at 10 µM: Rattus norvegicus, PC-12, 48 h, read-out: serum-deprived (surviving PC12 cells, MTT 570 nm); for protective effect on serum-deprived injury to PC12 cells: statement in words
How it was run: (§1)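 PC12 cells on poly-lysine plated 24 h, then injured 48 h by serum-free DMEM or 4 μM rotenone with 10 μM test compound present during injury. Viability read by MTT (4 h), absorbance 570 nm.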

[4] = system: Influenza A virus (hanfang359/95); assay: Determination of anti-influenza virus activity (CPE in MDCK cells); details: for IC50: Influenza A virus, MDCK, 36 h; for anti-influenza virus activities compared with the lead compound cajanine: statement in words
[5] = system: PC12 cells; assay: Neuroprotective activity assay, rotenone injury to PC12 cells (MTT); details: for viability at 10 µM: Rattus norvegicus, PC-12, 48 h, read-out: rotenone (surviving PC12 cells, MTT 570 nm); for protective effect on rotenone injury to PC12 cells: statement in words
How it was run: as §1

[6] = system: HIV-1 III B virus; assay: Anti-HIV activity assay (P24 antigen in MT-4 cells); details: for IC50: Human immunodeficiency virus 1, MT4, 96 h, read-out: HIV IC50; for anti-HIV viral activity: statement in words
[7] = Huh7.5 cells, 72 h, HCV RNA by RT-PCR, Reed-Muench
[8] = 10 μM test compound, 48 h, Control 100.0 ± 9.2, Model 69.3 ± 4.1
[9] = 10 μM test compound, 4 μM rotenone, 48 h, Control 100.0 ± 8.9, Model 73.2 ± 7.8
[10] = MT-4 cells, HIV-1 III B 100TCID50, 96 h, P24 antigen

Compound | EC50 [1, 7] [µg/mL] | anti-HCV viral activity [1] | IC50 [2] [µg/mL] | viability at 10 µM [3, 8] [%] | IC50 [4] [µg/mL] | anti-influenza virus activities compared with the lead compound cajanine [4] | viability at 10 µM [5, 9] [%] | IC50 [6, 10] [µg/mL] | anti-HIV viral activity [6] | protective effect on serum-deprived injury to PC12 cells [3] | protective effect on rotenone injury to PC12 cells [5] | HCV EC50 [1, 7] [µg/mL] | COX-B6 IC50 [2] [µg/mL] | serum-deprived (surviving PC12 cells, MTT 570 nm) [3, 8] | Influenza A virus (hanfang359/95) IC50 [4] [µg/mL] | rotenone (surviving PC12 cells, MTT 570 nm) [5, 9] | HIV IC50 [6, 10] [µg/mL] | IC50 [6] [µg/mL]
COc1cc(/C=C/c2ccc(O)cc2)cc(O)c1CC=C(C)C [Compound 10q, 2-isopentenyl-3-methoxy-5-[(E)-4′-hydroxystyryl]-phenol] | 0.89 (≈ 2.87 µM) | stronger anti-HIV, HCV viral activities | 2.35 (≈ 7.57 µM) | 79.5 ± 1.4 | 1.39 (≈ 4.48 µM) | significantly stronger than the lead compound cajanine | 76.8 ± 5.8 | 2.38 (≈ 7.67 µM) | stronger anti-HIV, HCV viral activities | – | – | – | – | – | – | – | – | –
COc1cc(/C=C/c2cc(O)c(CC=C(C)C)c(OC)c2)nc(OC)c1 [10d′] | 0.65 (≈ 1.83 µM) | – | 0.35 (≈ 0.985 µM) | 91.2 ± 3.2 | 0.14 (≈ 0.394 µM) | – | 94.3 ± 5.4 | 1.3 (≈ 3.66 µM) | – | – | – | – | – | – | – | – | – | –
COc1cc(/C=C/c2ccccc2)c(C(=O)Nc2ccccc2)c(O)c1CC=C(C)C [Compound 9g, N-phenyl-2-hydroxy-3-isopentenyl-4-methoxy-6-[(E)-styryl]benzamide] | 5.1 (≈ 12.3 µM) | – | 1.59 (≈ 3.85 µM) | 89.4 ± 2.3 | 0.84 (≈ 2.03 µM) | – | 87.4 ± 1.9 | 0.79 (≈ 1.91 µM) | – | the strongest activities | the strongest activities | – | – | – | – | – | – | –
methyl 2-hydroxy-3-isopentenyl-4-methoxy-6-(4′-methyl-cyclohexylenemethyl)benzoate [Compound 8n] | – | – | – | – | – | – | – | – | – | – | – | 1.06 | >6.17 | 53.7 ± 3.8 | >2.06 | 78.0 ± 9.2 | 2.17 | –
COC(=O)c1c(/C=C/c2ccc(OC(C)=O)cc2)cc(OC)c(CC=C(C)C)c1O [Compound 8q, methyl 2-hydroxy-3-isopentenyl-4′-methoxy-6-[(E)-4-acetoxystyryl]benzoate] | 7.63 (≈ 18.6 µM) | – | 5.23 (≈ 12.7 µM) | 79.8 ± 5.8 | 8.23 (≈ 20.1 µM) | – | 80.5 ± 6.5 | 2.1 (≈ 5.12 µM) | – | the strongest activities | the strongest activities | – | – | – | – | – | – | –
COc1cc(/C=C/c2ccc(C)cc2)cc(O)c1CC=C(C)C [Compound 10g, 2-isopentenyl-3-methoxy-5-[(E)-4′-methylstyryl]phenol] | 3.09 (≈ 10 µM) | – | 1.18 (≈ 3.83 µM) | 81.3 ± 2.5 | > 6.19 | – | 80.3 ± 3.2 | – | – | – | – | – | – | – | – | – | – | 1.18 (≈ 3.83 µM)
COc1cccc(/C=C/c2cc(O)c(CC=C(C)C)c(OC)c2)n1 [10f′] | 0.61 (≈ 1.87 µM) | – | 2.31 (≈ 7.1 µM) | 80.5 ± 3.2 | 0.23 (≈ 0.707 µM) | – | 79.1 ± 5.6 | 1.04 (≈ 3.2 µM) | – | – | – | – | – | – | – | – | – | –
COC(=O)c1c(/C=C/c2ccncc2)cc(OC)c(CC=C(C)C)c1O [Compound 8r] | 3.14 (≈ 8.88 µM) | – | 6.43 (≈ 18.2 µM) | 74.5 ± 5.7 | 4.65 (≈ 13.2 µM) | – | 69.8 ± 8.4 | 4.01 (≈ 11.3 µM) | – | – | – | – | – | – | – | – | – | –
COc1cc(/C=C/c2cccs2)cc(O)c1CC=C(C)C [Compound 10j] | 0.87 (≈ 2.9 µM) | stronger anti-HIV, HCV viral activities | 1.56 (≈ 5.19 µM) | 82.3 ± 2.5 | > 18.5 | – | 84.6 ± 5.2 | 0.66 (≈ 2.2 µM) | stronger anti-HIV, HCV viral activities | the strongest activities | the strongest activities | – | – | – | – | – | – | –
COc1cc(/C=C/c2ccc(O)cn2)c(C(=O)O)c(O)c1CC=C(C)C [Compound 1y] | 0.86 (≈ 2.42 µM) | stronger anti-HIV, HCV viral activities | 5.84 (≈ 16.4 µM) | 87.6 ± 1.6 | 4.25 (≈ 12 µM) | – | 89.7 ± 1.9 | 0.63 (≈ 1.77 µM) | stronger anti-HIV, HCV viral activities | – | – | – | – | – | – | – | – | –
COc1cc(/C=C/c2ccccn2)c(C(=O)O)c(O)c1CC=C(C)C [Compound 1t, 2-hydroxy-3-isopentenyl-4-methoxy-6-[(E)-2-(pyrid-2-yl)ethenyl]benzoic acid] | 1.58 (≈ 4.66 µM) | – | 0.61 (≈ 1.8 µM) | 85.1 ± 2.1 | 0.34 (≈ 1 µM) | significantly stronger than the lead compound cajanine | 84.6 ± 1.2 | 1.07 (≈ 3.15 µM) | – | – | – | – | – | – | – | – | – | –
COc1cc(/C=C/c2cc(O)cc(O)n2)cc(O)c1CC=C(C)C [10e′] | 1.87 (≈ 5.71 µM) | – | 1.21 (≈ 3.7 µM) | 87.9 ± 4.7 | 0.21 (≈ 0.641 µM) | – | 88.9 ± 2.8 | 0.71 (≈ 2.17 µM) | – | – | – | – | – | – | – | – | – | –
COC(=O)c1c(/C=C/c2ccccc2)cc(OC)c(C/C=C(\C)CCC=C(C)C)c1O [Compound 8o, methyl 2-hydroxy-3-(3′,7′-dimethyloctadien-2′,6′-yl)-4-methoxy-6-[(E)-styryl]benzoate] | 0.92 (≈ 2.19 µM) | – | 2.36 (≈ 5.61 µM) | 69.3 ± 5.6 | 0.82 (≈ 1.95 µM) | significantly stronger than the lead compound cajanine | 70.6 ± 6.3 | 2.96 (≈ 7.04 µM) | – | – | – | – | – | – | – | – | – | –
COc1cc(/C=C/c2cc(O)ccn2)cc(O)c1CC=C(C)C [10a′, 2-isopentenyl-3-methoxy-5-[(E)-2-(4-hydroxypyrid-2-yl)ethenyl]phenol] | 1.41 (≈ 4.53 µM) | – | 0.41 (≈ 1.32 µM) | 86.3 ± 1.2 | 0.17 (≈ 0.546 µM) | – | 89.2 ± 3.2 | 1.33 (≈ 4.27 µM) | – | – | – | – | – | – | – | – | – | –
COc1cc(/C=C(\C(=O)O)c2ccccc2)c(C(=O)O)c(O)c1CC=C(C)C [Compound 1s] | 0.84 (≈ 2.2 µM) | stronger anti-HIV, HCV viral activities | 0.85 (≈ 2.22 µM) | 89.8 ± 3.2 | 0.54 (≈ 1.41 µM) | – | 88.7 ± 6.1 | 0.75 (≈ 1.96 µM) | stronger anti-HIV, HCV viral activities | – | – | – | – | – | – | – | – | –
COc1cc(/C=C/c2cccs2)c(C(=O)O)c(O)c1CC=C(C)C [Compound 1j, 2-hydroxy-3-isopentenyl-4-methoxy-6-[(E)-2-(thien-2-yl)ethenyl]benzoic acid] | 0.77 (≈ 2.24 µM) | stronger anti-HIV, HCV viral activities | 2.13 (≈ 6.18 µM) | 27.7 ± 6.3 | > 0.27 | – | 59.8 ± 7.7 | 1.02 (≈ 2.96 µM) | stronger anti-HIV, HCV viral activities | – | – | – | – | – | – | – | – | –
COc1cc(/C=C/c2ccc(O)cc2)c(C(=O)O)c(O)c1CC=C(C)C [Compound 1q] | 2.3 (≈ 6.49 µM) | – | 0.86 (≈ 2.43 µM) | 79.6 ± 2.8 | 2.35 (≈ 6.63 µM) | significantly stronger than the lead compound cajanine | 78.9 ± 5.3 | 1.86 (≈ 5.25 µM) | – | – | – | – | – | – | – | – | – | –
